Key:
[1] = Selectivity index, ratio of IC50 for cytotoxicity against human HepG2 cells to IC50 for antiplasmodial activity against chloroquine-sensitive Plasmodium falciparum 3D7; format: toxicity, cell-based; conditions: read-out: Ratio IC50
[2] = Cytotoxicity against human HepG2 cells assessed as cell growth inhibition incubated for 1 day by neutral red assay; format: toxicity, cell-based
[3] = Inhibition of hemin (unknown origin) assessed as inhibition of heme polymerization by measuring reduction in beta-hematin formation at 1 mM measured after 48 hrs by microplate reader assay
Plasmodium falciparum [4] = test: Antiplasmodial activity against chloroquine-sensitive Plasmodium falciparum 3D7 assessed as inhibition of parasite growth incubated for 3 days by HRP2-ELISA; format: functional, organism-based; conditions: 3D7, 72 h
Plasmodium falciparum [5] = test: Antiplasmodial activity against multidrug-resistant Plasmodium falciparum Dd2 assessed as inhibition of parasite growth incubated for 3 days by HRP2-ELISA; format: functional, organism-based; conditions: Dd2, 72 h
[6] = Resistance index, ratio of IC50 for antiplasmodial activity against multidrug-resistant Plasmodium falciparum Dd2 to IC50 for antiplasmodial activity against chloroquine-sensitive Plasmodium falciparum 3D7; format: functional
[7] = Resistance index, ratio of IC50 for antiplasmodial activity against multidrug-resistant Plasmodium falciparum K1 to IC50 for antiplasmodial activity against chloroquine-sensitive Plasmodium falciparum 3D7; format: functional
Plasmodium falciparum [8] = test: Antiplasmodial activity against chloroquine-resistant Plasmodium falciparum 7G8 assessed as inhibition of parasite growth incubated for 3 days by HRP2-ELISA; format: functional, organism-based; conditions: 7G8, 72 h
Plasmodium falciparum [9] = test: Antiplasmodial activity against multidrug-resistant Plasmodium falciparum K1 assessed as inhibition of parasite growth incubated for 3 days by HRP2-ELISA; format: functional, organism-based; conditions: K1, 72 h
[10] = Resistance index, ratio of IC50 for antiplasmodial activity against chloroquine-resistant Plasmodium falciparum 7G8 to IC50 for antiplasmodial activity against chloroquine-sensitive Plasmodium falciparum 3D7; format: functional
Plasmodium falciparum [11] = test: Potency index, ratio of chloroquine IC50 to test compound IC50 for antiplasmodial activity against multidrug-resistant Plasmodium falciparum K1 assessed as inhibition of parasite growth incubated for 3 days by HRP2-ELISA; format: functional; conditions: time 3 day
Plasmodium falciparum [12] = test: Potency index, ratio of chloroquine IC50 to test compound IC50 for antiplasmodial activity against chloroquine-sensitive Plasmodium falciparum 3D7 assessed as inhibition of parasite growth incubated for 3 days by HRP2-ELISA; format: functional; conditions: time 3 day
Plasmodium falciparum [13] = test: Potency index, ratio of chloroquine IC50 to test compound IC50 for antiplasmodial activity against chloroquine-resistant Plasmodium falciparum 7G8 assessed as inhibition of parasite growth incubated for 3 days by HRP2-ELISA; format: functional; conditions: time 3 day
Plasmodium falciparum [14] = test: Potency index, ratio of chloroquine IC50 to test compound IC50 for antiplasmodial activity against multidrug-resistant Plasmodium falciparum Dd2 assessed as inhibition of parasite growth incubated for 3 days by HRP2-ELISA; format: functional; conditions: time 3 day

SMILES | selectivity ratio [1] | IC50 at 1 day [2] | inhibition [3] | IC50 (Plasmodium falciparum [4]) | IC50 (Plasmodium falciparum [5]) | Ratio IC50 [6] | Ratio IC50 [7] | IC50 (Plasmodium falciparum [8]) | IC50 (Plasmodium falciparum [9]) | Ratio IC50 [10] | Ratio IC50 (Plasmodium falciparum [11]) | Ratio IC50 (Plasmodium falciparum [12]) | Ratio IC50 (Plasmodium falciparum [13]) | Ratio IC50 (Plasmodium falciparum [14])
COc1ccc2c3ccnc(C)c3n(CCC(=O)NCCCCNc3ccnc4cc(Cl)ccc34)c2c1 | > 723 | > 25000 nM | < 50% | – | – | – | – | – | – | – | – | – | – | –
Cc1nc(Cn2cc(COc3ccnc4cc(Cl)ccc34)nn2)cc2c1[nH]c1ccccc12 | > 9.22 | > 100000 nM | 50% | 10800 nM | 5420 nM | 0.4 | – | – | – | – | – | – | – | –
COc1ccc2c3ccnc(C)c3n(CCC(=O)NCCNc3ccnc4cc(Cl)ccc34)c2c1 | 795 | 12800 nM | < 50% | – | – | – | – | – | – | – | – | – | – | –
Cc1nccc2c1[nH]c1ccc(OCc3cn(-c4ccnc5cc(Cl)ccc45)nn3)cc12 | 1.5 | 5500 nM | > 75% | 3660 nM | 7110 nM | 1.9 | – | – | – | – | – | – | – | –
Cc1nccc2c1[nH]c1cc(OCc3cn(-c4ccnc5cc(Cl)ccc45)nn3)ccc12 | 66.8 | 6400 nM | > 75% | 95.8 nM | 203 nM | 2.1 | 3.1 | 195 nM | 299 nM | 2 | – | – | – | –
Cc1nccc2c1[nH]c1ccc(OCCNC(=O)CNc3ccnc4cc(Cl)ccc34)cc12 | > 66 | > 20000 nM | < 50% | 303 nM | 535 nM | 1.7 | – | – | – | – | – | – | – | –
COc1ccc2c3ccnc(C)c3n(Cc3cn(CCNc4ccnc5cc(Cl)ccc45)nn3)c2c1 | 829 | 14000 nM | 50% | 11.6 nM | 204 nM | – | – | 28.6 nM | 163 nM | – | – | – | – | –
Cc1nccc2c1[nH]c1ccc(OCc3cn(CCNc4ccnc5cc(Cl)ccc45)nn3)cc12 | 228 | 15000 nM | > 75% | 65.7 nM | 160 nM | 2.4 | 2.1 | 144 nM | 141 nM | 2.1 | – | – | – | –
O=C(CNc1ccnc2cc(Cl)ccc12)NCc1nccc2c1[nH]c1ccccc12 | 144 | 7800 nM | < 50% | 54 nM | 171 nM | 3.1 | – | – | – | – | – | – | – | –
Cc1nccc2c1[nH]c1cc(OCCNC(=O)CNc3ccnc4cc(Cl)ccc34)ccc12 | 68.1 | 15900 nM | 50% | 234 nM | 309 nM | 1.3 | – | – | – | – | – | – | – | –
Cc1nccc2c1[nH]c1cc(OCc3cn(CCNc4ccnc5cc(Cl)ccc45)nn3)ccc12 | 110 | 6300 nM | > 75% | 57.3 nM | 76.2 nM | 1.3 | 0.5 | 44.2 nM | 33.5 nM | 0.7 | – | – | – | –
COc1ccc2c3ccnc(C)c3n(CCNC(=O)CNc3ccnc4cc(Cl)ccc34)c2c1 | 4450 | 8900 nM | 50% | 2 nM | 16.2 nM | – | – | 7.4 nM | 24.8 nM | – | 15.9 | 5.5 | 29.8 | 22.5
Clc1ccc2c(OCc3cn(Cc4nccc5c4[nH]c4ccccc45)nn3)ccnc2c1 | > 0.9 | > 25000 nM | < 50% | > 28000 nM | > 27800 nM | – | – | – | – | – | – | – | – | –
COc1ccc2c(c1)[nH]c1c(C)nccc12 [HARMINE] | – | > 250000 nM | – | – | – | – | – | – | – | – | – | – | – | –
COc1ccc2c3ccnc(C)c3n(Cc3cn(-c4ccnc5cc(Cl)ccc45)nn3)c2c1 | 21.9 | 19700 nM | < 50% | 899 nM | 1820 nM | 2 | – | – | – | – | – | – | – | –
CCN(CC)CCCC(C)Nc1ccnc2cc(Cl)ccc12 (configuration not stated) | – | – | > 75% | – | – | – | – | – | – | – | – | – | – | –
Cc1nc(CNC(=O)CNc2ccnc3cc(Cl)ccc23)cc2c1[nH]c1ccccc12 | 1430 | 18600 nM | < 50% | 13 nM | 46.1 nM | 3.5 | 3.7 | 28.2 nM | 48.8 nM | 2.1 | – | – | – | –
